According to patent publication US11254668B2, “Pyrazolo[1,5-A]pyrazin-4-yl and related derivatives” (Pfizer Inc., priority 2017, dated 2022):

Key:
Format in all cases: biochemical
TYK2 = TYK2 (Homo sapiens (Human), UniProt P29597); test: JAK Caliper Enzyme Assay at 1 mM ATP, TYK2
In short: (§1)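 Peptide phosphorylation by recombinant human kinase domain, 1 mM ATP, room temperature, EDTA-terminated, detected by microfluidic mobility shift; % effect normalised to DMSO baseline.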

JAK1 = JAK1 (Homo sapiens (Human), UniProt P23458); test: JAK Caliper Enzyme Assay at 1 mM ATP, JAK1
JAK1, sequence (P23458 875-1153): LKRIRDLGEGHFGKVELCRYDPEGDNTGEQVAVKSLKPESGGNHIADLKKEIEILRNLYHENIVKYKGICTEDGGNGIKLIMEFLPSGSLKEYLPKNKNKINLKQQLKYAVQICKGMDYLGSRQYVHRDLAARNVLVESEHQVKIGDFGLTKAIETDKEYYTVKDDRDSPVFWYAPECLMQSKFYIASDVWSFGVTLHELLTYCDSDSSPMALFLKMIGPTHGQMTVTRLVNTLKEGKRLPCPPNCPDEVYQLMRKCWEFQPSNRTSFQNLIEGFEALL
In short: (§2)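 Recombinant human kinase domains phosphorylate a fluorescent synthetic peptide at 1 mM ATP, room temperature, with enzyme and time tuned for 20-30% conversion; EDTA-stopped. Product/substrate separated by microfluidic mobility shift; percent effect versus DMSO and positive controls fitted to IC50 (nM).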

JAK2 = JAK2 (Homo sapiens (Human), UniProt O60674); test: JAK Caliper Enzyme Assay at 1 mM ATP, JAK2
JAK2, sequence (O60674 849-1124): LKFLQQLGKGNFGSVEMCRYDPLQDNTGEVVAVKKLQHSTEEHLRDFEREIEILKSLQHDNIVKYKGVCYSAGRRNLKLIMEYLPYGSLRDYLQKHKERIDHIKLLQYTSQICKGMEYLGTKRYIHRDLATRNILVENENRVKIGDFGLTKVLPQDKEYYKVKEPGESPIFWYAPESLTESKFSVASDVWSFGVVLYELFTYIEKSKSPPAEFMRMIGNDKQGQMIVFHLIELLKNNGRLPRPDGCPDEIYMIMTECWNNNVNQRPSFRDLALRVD
In short: as §1

JAK3 = JAK3 (Homo sapiens (Human), UniProt P52333); test: JAK Caliper Enzyme Assay at 1 mM ATP, JAK3
JAK3, sequence (P52333 822-1111): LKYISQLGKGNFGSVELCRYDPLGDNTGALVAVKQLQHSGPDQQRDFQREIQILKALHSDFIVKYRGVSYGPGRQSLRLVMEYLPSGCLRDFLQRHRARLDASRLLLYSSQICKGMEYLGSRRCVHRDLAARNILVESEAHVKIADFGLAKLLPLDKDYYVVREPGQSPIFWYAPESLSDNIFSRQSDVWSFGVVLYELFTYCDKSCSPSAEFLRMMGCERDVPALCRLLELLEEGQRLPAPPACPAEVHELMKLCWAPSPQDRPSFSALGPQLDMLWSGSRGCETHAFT
In short: as §2

TYK2, sequence (P29597 897-1176): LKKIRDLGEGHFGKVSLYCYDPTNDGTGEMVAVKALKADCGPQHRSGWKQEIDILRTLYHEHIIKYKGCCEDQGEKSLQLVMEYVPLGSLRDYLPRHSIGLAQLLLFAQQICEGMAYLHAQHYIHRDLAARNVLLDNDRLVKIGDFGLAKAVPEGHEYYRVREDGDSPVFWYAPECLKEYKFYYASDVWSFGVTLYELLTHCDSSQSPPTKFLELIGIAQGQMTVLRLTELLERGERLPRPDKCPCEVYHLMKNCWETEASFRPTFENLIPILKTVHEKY

Compound | IC50 (TYK2) | IC50 (JAK1) | IC50 (JAK2) | IC50 (JAK3)
N#CCC1(n2ncc(-c3cc(-c4scnc4CO)cc4ncccc34)n2)CC(C#N)C1 (stereo not drawn) [Example 344, trans-3-(cyanomethyl)-3-(4-{7-[4-(hydroxymethyl)-1,3-thiazol-5-yl]quinolin-5-yl}-2H-1,2,3-triazol-2-yl)cyclobutanecarbonitrile] | 0.776 µM | > 10 µM | > 10 µM | > 10 µM
N#CC[C@]1(n2ncc(-c3cc(-c4cc(CO)ns4)cc4ncccc34)n2)C[C@H](C#N)C1 [Example 345, trans-3-(cyanomethyl)-3-(4-{7-[3-(hydroxymethyl)-1,2-thiazol-5-yl]quinolin-5-yl}-2H-1,2,3-triazol-2-yl)cyclobutanecarbonitrile] | 0.249 µM | 3.81 µM | 1.86 µM | > 10 µM
N#CCC1(n2ncc(-c3cc(-c4ccccn4)cc4ncccc34)n2)CC(C#N)C1 (stereo not drawn) [Example 346, cis-3-(cyanomethyl)-3-{4-[7-(pyridin-2-yl)quinolin-5-yl]-2H-1,2,3-triazol-2-yl}cyclobutanecarbonitrile] | 0.023 µM | 1.08 µM | 0.123 µM | > 10 µM
N#CC[C@]1(n2ncc(-c3cc(-c4ccc(F)cn4)cc4ncccc34)n2)C[C@@H](C#N)C1 [Example 347, cis-3-(cyanomethyl)-3-{4-[7-(5-fluoropyridin-2-yl)quinolin-5-yl]-2H-1,2,3-triazol-2-yl}cyclobutanecarbonitrile] | 0.026 µM | 1.2 µM | 0.114 µM | > 10 µM
N#CCC1(n2ncc(-c3cc(-c4ccc(F)cn4)cc4ncccc34)n2)CC(C#N)C1 (stereo not drawn) [Example 348, trans-3-(cyanomethyl)-3-{4-[7-(5-fluoropyridin-2-yl)quinolin-5-yl]-2H-1,2,3-triazol-2-yl}cyclobutanecarbonitrile] | 0.143 µM | > 10 µM | 0.876 µM | > 10 µM
N#CCC1(n2ncc(-c3cc(-c4ccc(C(N)=O)cn4)cc4ncccc34)n2)CC(C#N)C1 (stereo not drawn) [Example 351, 6-(5-{2-[trans-3-cyano-1-(cyanomethyl)cyclobutyl]-2H-1,2,3-triazol-4-yl}quinolin-7-yl)pyridine-3-carboxamide] | 0.131 µM | > 10 µM | 0.688 µM | > 10 µM
N#CCC1(n2ncc(-c3cc(-c4ccc(C(N)=O)cn4)cc4ncccc34)n2)CC(C#N)C1 (stereo not drawn) [Example 352, 6-(5-{2-[cis-3-cyano-1-(cyanomethyl)cyclobutyl]-2H-1,2,3-triazol-4-yl}quinolin-7-yl)pyridine-3-carboxamide] | 0.027 µM | 0.825 µM | 0.106 µM | > 10 µM
N#CCC1(n2ncc(-c3cc(-c4cc(C(N)=O)ccn4)cc4ncccc34)n2)CC(C#N)C1 (stereo not drawn) [Example 353, 2-(5-{2-[cis-3-cyano-1-(cyanomethyl)cyclobutyl]-2H-1,2,3-triazol-4-yl}quinolin-7-yl)pyridine-4-carboxamide] | 1.57 µM | 9.63 µM | > 10 µM | > 10 µM
N#CC[C@]1(n2ncc(-c3cc(-c4cc(C(N)=O)ccn4)cc4ncccc34)n2)C[C@@H](C#N)C1 [Example 354, 2-(5-{2-[trans-3-cyano-1-(cyanomethyl)cyclobutyl]-2H-1,2,3-triazol-4-yl}quinolin-7-yl)pyridine-4-carboxamide] | 7.25 µM | > 10 µM | > 10 µM | > 10 µM
Cc1ccc(-c2cc(-c3cnn(C4(CC#N)CN(S(C)(=O)=O)C4)n3)c3cccnc3c2)cn1 [Example 355, [3-{4-[7-(6-methylpyridin-3-yl)quinolin-5-yl]-2H-1,2,3-triazol-2-yl}-1-(methylsulfonyl)azetidin-3-yl]acetonitrile] | 0.137 µM | > 10 µM | 1.58 µM | > 10 µM
Cc1cc(-c2cc(-c3cnn(C4(CC#N)CN(S(C)(=O)=O)C4)n3)c3cccnc3c2)ccn1 [Example 356, [3-{4-[7-(2-methylpyridin-4-yl)quinolin-5-yl]-2H-1,2,3-triazol-2-yl}-1-(methylsulfonyl)azetidin-3-yl]acetonitrile] | 0.13 µM | > 10 µM | 0.973 µM | > 10 µM
N#CC[C@]1(n2ncc(-c3cc(-c4cccc(N)n4)cc4ncccc34)n2)C[C@H](C#N)C1 [Example 357, trans-3-{4-[7-(6-aminopyridin-2-yl)quinolin-5-yl]-2H-1,2,3-triazol-2-yl}-3-(cyanomethyl)cyclobutanecarbonitrile] | 0.099 µM | 2.58 µM | 0.67 µM | > 10 µM
N#CC[C@]1(n2ncc(-c3cc(-c4cccc(N)n4)cc4ncccc34)n2)C[C@@H](C#N)C1 [Example 358, cis-3-{4-[7-(6-aminopyridin-2-yl)quinolin-5-yl]-2H-1,2,3-triazol-2-yl}-3-(cyanomethyl)cyclobutanecarbonitrile] | 0.02 µM | 0.404 µM | 0.092 µM | 3.76 µM
N#CC[C@]1(n2ncc(-c3cc(-c4ccc(N)cn4)cc4ncccc34)n2)C[C@@H](C#N)C1 [Example 359, cis-3-{4-[7-(5-aminopyridin-2-yl)quinolin-5-yl]-2H-1,2,3-triazol-2-yl}-3-(cyanomethyl)cyclobutanecarbonitrile] | 0.013 µM | 0.321 µM | 0.069 µM | 6.7 µM
N#CC[C@]1(n2ncc(-c3cc(-c4ccc(N)cn4)cc4ncccc34)n2)C[C@H](C#N)C1 [Example 360, trans-3-{4-[7-(5-aminopyridin-2-yl)quinolin-5-yl]-2H-1,2,3-triazol-2-yl}-3-(cyanomethyl)cyclobutanecarbonitrile] | 0.04 µM | 1.72 µM | 0.354 µM | > 10 µM
CS(=O)(=O)N1CC(CC#N)(n2ncc(-c3cc(-c4cccnc4N)cc4ncccc34)n2)C1 [Example 361, [3-{4-[7-(2-aminopyridin-3-yl)quinolin-5-yl]-2H-1,2,3-triazol-2-yl}-1-(methylsulfonyl)azetidin-3-yl]acetonitrile] | 3.63 µM | > 10 µM | > 10 µM | > 10 µM
N#CC[C@]1(n2ncc(-c3cc(-c4cccc(C(=O)O)n4)cc4ncccc34)n2)C[C@H](C#N)C1 [Example 370, 6-(5-{2-[cis-3-cyano-1-(cyanomethyl)cyclobutyl]-2H-1,2,3-triazol-4-yl}quinolin-7-yl)pyridine-2-carboxylic acid] | 0.03 µM | 2.29 µM | 0.345 µM | > 10 µM

Second part, the molecule after the results:

IC50 (TYK2) | IC50 (JAK1) | IC50 (JAK2) | IC50 (JAK3) | Compound
1.96 µM | > 10 µM | > 10 µM | > 10 µM | N#CC[C@]1(n2ncc(-c3cc(-c4cccnc4N)cc4ncccc34)n2)C[C@@H](C#N)C1 [Example 362, cis-3-{4-[7-(2-aminopyridin-3-yl)quinolin-5-yl]-2H-1,2,3-triazol-2-yl}-3-(cyanomethyl)cyclobutanecarbonitrile]
6.84 µM | > 10 µM | > 10 µM | > 10 µM | N#CC[C@]1(n2ncc(-c3cc(-c4cccnc4N)cc4ncccc34)n2)C[C@H](C#N)C1 [Example 363, trans-3-{4-[7-(2-aminopyridin-3-yl)quinolin-5-yl]-2H-1,2,3-triazol-2-yl}-3-(cyanomethyl)cyclobutanecarbonitrile]
0.067 µM | 2.96 µM | 0.834 µM | > 10 µM | CS(=O)(=O)N1CC(CC#N)(n2ncc(-c3cc(-c4ccc(N)nc4)cc4ncccc34)n2)C1 [Example 364, [3-{4-[7-(6-aminopyridin-3-yl)quinolin-5-yl]-2H-1,2,3-triazol-2-yl}-1-(methylsulfonyl)azetidin-3-yl]acetonitrile]
0.103 µM | 2.66 µM | 0.938 µM | > 10 µM | N#CC[C@]1(n2ncc(-c3cc(-c4ccc(N)nc4)cc4ncccc34)n2)C[C@H](C#N)C1 [Example 365, trans-3-{4-[7-(6-aminopyridin-3-yl)quinolin-5-yl]-2H-1,2,3-triazol-2-yl}-3-(cyanomethyl)cyclobutanecarbonitrile]
0.026 µM | 0.52 µM | 0.167 µM | 8.16 µM | N#CC[C@]1(n2ncc(-c3cc(-c4ccc(N)nc4)cc4ncccc34)n2)C[C@@H](C#N)C1 [Example 366, cis-3-{4-[7-(6-aminopyridin-3-yl)quinolin-5-yl]-2H-1,2,3-triazol-2-yl}-3-(cyanomethyl)cyclobutanecarbonitrile]
0.093 µM | 2.8 µM | 1.29 µM | > 10 µM | N#CC[C@]1(n2ncc(-c3cc(-c4ccnc(N)c4)cc4ncccc34)n2)C[C@H](C#N)C1 [Example 367, trans-3-{4-[7-(2-aminopyridin-4-yl)quinolin-5-yl]-2H-1,2,3-triazol-2-yl}-3-(cyanomethyl)cyclobutanecarbonitrile]
0.015 µM | 0.525 µM | 0.042 µM | 7.25 µM | CS(=O)(=O)c1ccc(-c2cc(-c3cnn([C@]4(CC#N)C[C@H](C#N)C4)n3)c3cccnc3c2)nc1 [Example 368, cis-3-(cyanomethyl)-3-(4-{7-[5-(methylsulfonyl)pyridin-2-yl]quinolin-5-yl}-2H-1,2,3-triazol-2-yl)cyclobutanecarbonitrile]
0.055 µM | 3.51 µM | 0.281 µM | > 10 µM | CS(=O)(=O)c1ccc(-c2cc(-c3cnn([C@]4(CC#N)C[C@@H](C#N)C4)n3)c3cccnc3c2)nc1 [Example 369, trans-3-(cyanomethyl)-3-(4-{7-[5-(methylsulfonyl)pyridin-2-yl]quinolin-5-yl}-2H-1,2,3-triazol-2-yl)cyclobutanecarbonitrile]
